US12103915B2, “TEAD inhibitors and methods of uses thereof” (Insilico Medicine IP Limited, priority 2022, dated 2024)
One block for each compound: values may come before it.

What was measured:
[1] = biological target: TEAD3 (Homo sapiens, UniProt Q99594); assay: Thermal shift assay TEAD3; type: binding
Outline: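 Compounds at 1 or 10 μM (0.1% DMSO, PBS dilution) mixed with 0.1 mg/ml final TEAD3 and thermal shift dye, then run through a qPCR melt to follow protein unfolding.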

[2] = biological target: TEAD1 (Homo sapiens, UniProt P28347); assay: Thermal shift assay TEAD1; type: binding
Outline: (§1)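 Protein melt reactions contained TEAD1 (0.2 mg/ml final) or TEAD2 (0.08 mg/ml final) plus compound at 1 or 10 μM in 0.1% DMSO. Thermal unfolding was followed by dye fluorescence on a qPCR instrument.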

[3] = biological target: TEAD2 (Homo sapiens, UniProt Q15562); assay: Thermal shift assay TEAD2; type: binding
Outline: as §1

[4] = tested on: NCI-H226 cells; assay: Cell growth assay (CellTiter-Glo); type: cell-based, human; conditions: Homo sapiens, NCI-H226, 168 h, 7 days treatment, CellTiter-Glo luminescence, read-out: H226 CTG IC50
[5] = biological target: TEAD4 (Homo sapiens, UniProt Q15561); assay: Thermal shift assay TEAD4; type: binding
Outline: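 Compounds tested at 1 and 10 μM (0.1% DMSO, PBS) against TEAD4 protein at 0.1 mg/ml final. Melting followed by thermal shift dye fluorescence during a qPCR instrument ramp.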

[6] = Pharmacokinetic profile evaluation in mice; type: in vivo, CD-1 mice; conditions: CD-1; mouse, oral administration at 10 mg/kg, plasma
Method: Example C: Pharmacokinetic Profile Evaluation
Three CD-1 mice of SPF. (Sino-British SIPPR/BK Lab Animal Ltd, Shanghai.) were intravenously administrated with given compounds (Formulation: 5% DMSO+10% Solutol+85% Saline) or orally gavage administrated with given compounds (Formulation: 5% DMSO+10% Solutol+85% Saline). The blood samples were taken via cephalic vein at timepoints 0.083 h, 0.25 h, 0.5 h, 1 h, 2 h, 4 h, 8 h, and 24 h after intravenous (iv) administration or at timepoints 0.25 h, 0.5 h, 1 h, 2 h, 4 h, 6 h, 8 h, and 24 h after oral gavage administration, 30 μL/time point. Blood samples were placed in tubes containing K2-EDTA and stored on ice until centrifuged. The blood samples were centrifuged at 6800 g for 6 minutes at 2-8° C. within 1 h after collected and stored frozen at approximately −80° C. An aliquot of 20 μL plasma samples were protein precipitated with 400 μL MeOH in which contains 100 ng/mL Verapamil (IS). The mixture was vortexed for 1 min and centrifuged at 18000 g for 10 min. Transfer 400 μL supernatant to 96 well plates. An aliquot of 5 μL supernatant was injected for LC-MS/MS analysis by LC-MS/MS-27 (TQ6500+) instrument. The analytical results were confirmed using quality control samples for intra-assay variation. The accuracy of >66.7% of the quality control samples should be between 80-120% of the known value(s). Standard set of parameters including Area Under the Curve (AUC(0-t)), maximum plasma concentration (Cmax), elimination half-life (T1/2) will be calculated using noncompartmental analysis modules in FDA certified pharmacokinetic program Phoenix WinNonlin 7.0 (Pharsight, USA).

[7] = Body weight change in NCI-H226 xenograft study; type: in vivo, BALB/c Nude mice; conditions: QD, oral, day 21 compared to day 1
Method: (§2) Example D: In Vivo Pharmacodynamic and Efficacy Study
(§3) The objective of the research is to evaluate the in vivo anti-tumor efficacy of Example 58b, 64, 75a in human lung cancer NCI-H226 xenograft model in BALB/c Nude mice. (Jiangsu GemPharmatech Co., Ltd, female, 6-9 weeks)
(§4) The NCI-H226 cancer cells was maintained in vitro with RPMI1640 medium supplemented with 10% fetal bovine serum at 37° C. in an atmosphere of 5% CO2 in the air. The cells in exponential growth phase will be harvested and quantitated by cell counter before tumor inoculation. Each mouse was inoculated subcutaneously it the right front flank region with NCI-H226 tumor cells (lx 107) in 0.2 ml of PBS mixed with Matrigel (1:1) for tumor development. Animals were randomized when the average tumor volume reached 150-200 mm^3. The test article was administered to the mice orally once a day from the day of grouping, total 21 days (QD×21 Days). Body weight change of animals was monitored regularly as an indicator of drug safety. The major endpoint was to see if the tumor growth could be delayed or mice could be cured. Tumor sizes were measured two times per week in two dimensions using a caliper, and the volume were expressed in mm^3 using the formula: V=0.5a×b^2 where a and b are the long and short diameters of the tumor, respectively.
(§5) The tumor volume were then used for the calculations of TGI. TGI is calculated for each group using the formula: TGI (%)=[1−(Ti−T0)/(Ci−C0)]×100; Ti is the average tumor volume of a treatment group on a given day, T0 is the average tumor volume of the treatment group on the first day of treatment, Ci is the average tumor volume of the vehicle control group on the same day with Ti, and C0 is the average tumor volume of the vehicle group on the first day of treatment. To compare tumor volumes of different groups at a pre-specified day, Bartlett's test was used to check the assumption of homogeneity of variance across all groups.

[8] = tested on: human lung cancer NCI-H226 xenograft; assay: In vivo anti-tumor efficacy, NCI-H226 xenograft model (TGI); parameters: species or system BALB/c Nude mice; conditions: QD, oral, tumor volume at day 21
Method: as §2, §3, §4, §5

Chain of TEAD4 (Q15561 whole entry, species assumed): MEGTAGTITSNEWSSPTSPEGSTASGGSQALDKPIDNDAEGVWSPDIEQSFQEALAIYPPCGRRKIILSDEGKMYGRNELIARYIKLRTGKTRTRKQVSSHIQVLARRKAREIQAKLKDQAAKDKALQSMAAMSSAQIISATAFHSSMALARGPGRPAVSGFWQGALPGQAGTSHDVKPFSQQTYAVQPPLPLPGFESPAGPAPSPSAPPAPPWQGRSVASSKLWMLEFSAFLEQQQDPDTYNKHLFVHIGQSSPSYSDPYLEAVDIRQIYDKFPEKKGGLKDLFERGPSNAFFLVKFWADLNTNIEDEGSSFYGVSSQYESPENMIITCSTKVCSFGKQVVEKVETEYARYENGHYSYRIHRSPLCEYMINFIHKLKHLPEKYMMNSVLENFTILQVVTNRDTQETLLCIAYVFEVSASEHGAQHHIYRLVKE
Chain of TEAD2 (Q15562 whole entry, species assumed): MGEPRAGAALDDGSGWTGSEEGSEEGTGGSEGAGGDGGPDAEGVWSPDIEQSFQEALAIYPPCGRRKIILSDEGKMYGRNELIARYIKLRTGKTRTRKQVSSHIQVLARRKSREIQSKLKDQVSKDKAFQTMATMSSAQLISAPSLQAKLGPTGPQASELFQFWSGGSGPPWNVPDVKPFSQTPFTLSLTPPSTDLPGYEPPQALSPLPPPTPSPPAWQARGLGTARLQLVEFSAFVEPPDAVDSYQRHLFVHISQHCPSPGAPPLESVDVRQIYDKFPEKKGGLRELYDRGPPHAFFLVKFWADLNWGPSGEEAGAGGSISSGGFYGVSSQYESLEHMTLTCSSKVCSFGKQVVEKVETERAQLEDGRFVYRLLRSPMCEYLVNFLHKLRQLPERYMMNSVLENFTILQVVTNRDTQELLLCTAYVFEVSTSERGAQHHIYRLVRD
Chain of TEAD1 (P28347 whole entry, species assumed): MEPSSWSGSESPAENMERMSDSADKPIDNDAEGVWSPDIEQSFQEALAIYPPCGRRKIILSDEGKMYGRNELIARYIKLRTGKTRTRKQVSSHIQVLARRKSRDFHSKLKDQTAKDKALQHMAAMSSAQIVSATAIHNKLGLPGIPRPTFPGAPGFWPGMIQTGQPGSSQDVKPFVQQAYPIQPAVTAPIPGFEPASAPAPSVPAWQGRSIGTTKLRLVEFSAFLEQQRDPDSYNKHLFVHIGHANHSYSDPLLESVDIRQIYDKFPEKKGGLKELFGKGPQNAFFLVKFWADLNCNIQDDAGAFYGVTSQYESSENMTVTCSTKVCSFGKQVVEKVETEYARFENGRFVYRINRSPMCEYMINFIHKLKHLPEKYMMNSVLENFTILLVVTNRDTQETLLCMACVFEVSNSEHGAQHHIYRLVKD
Chain of TEAD3 (Q99594 whole entry, species assumed): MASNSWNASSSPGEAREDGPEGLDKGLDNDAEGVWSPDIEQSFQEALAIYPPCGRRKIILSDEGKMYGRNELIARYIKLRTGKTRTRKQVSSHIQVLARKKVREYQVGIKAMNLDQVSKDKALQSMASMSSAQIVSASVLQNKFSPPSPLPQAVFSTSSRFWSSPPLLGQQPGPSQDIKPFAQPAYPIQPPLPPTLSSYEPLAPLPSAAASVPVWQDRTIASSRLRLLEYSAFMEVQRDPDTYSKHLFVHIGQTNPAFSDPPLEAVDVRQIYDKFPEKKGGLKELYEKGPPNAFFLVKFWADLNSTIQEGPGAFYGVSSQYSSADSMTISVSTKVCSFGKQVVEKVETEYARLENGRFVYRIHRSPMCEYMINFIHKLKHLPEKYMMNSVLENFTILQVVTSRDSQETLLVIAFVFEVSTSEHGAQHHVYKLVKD

SMILES: CNC(=O)[C@@H]1CC1c1cc(-c2ccc(C(F)(F)F)cc2)cc2c1cnn2C (mixture of isomers) [Example 24]
TEAD3 ΔTm [1]: 0.3 °C | TEAD1 ΔTm [2]: 2.4 °C | TEAD2 ΔTm [3]: 4.5 °C | IC50 [4]: 100 to 500 nM | TEAD4 ΔTm [5]: 2.4 °C | AUC(0-t) [6]: 70000 ng·h/mL | Cmax [6]: 5530 ng/mL | half-life [6]: 5.2 h

SMILES: Cn1cc2cc(Oc3ccc(C(F)(F)F)cc3)cc(C3C[C@H]3C(=O)N3C[C@@H]4C[C@H]3C[C@@H]4O)c2n1 (single isomer, unassigned) [Example 103f]
TEAD3 ΔTm [1]: 9.2 °C | TEAD1 ΔTm [2]: 8.2 °C | TEAD2 ΔTm [3]: 9.8 °C | IC50 [4]: < 100 nM | TEAD4 ΔTm [5]: 11.1 °C | AUC(0-t) [6]: 51600 ng·h/mL | Cmax [6]: 4120 ng/mL | half-life [6]: 4.8 h

SMILES: CNS(=O)(=O)CCc1cc(-c2ccc(C(F)(F)F)cc2)cc2c1cnn2C [Example 42]
TEAD3 ΔTm [1]: 3.5 °C | TEAD1 ΔTm [2]: 7.3 °C | TEAD2 ΔTm [3]: 4.1 °C | IC50 [4]: < 100 nM | TEAD4 ΔTm [5]: 3.8 °C

SMILES: CNS(=O)(=O)CCc1cc(-c2ccc(C(F)(F)F)cc2)cc2cn(C)nc12 [Example 44]
TEAD3 ΔTm [1]: 3.0 °C | TEAD1 ΔTm [2]: 9.1 °C | TEAD2 ΔTm [3]: 7.6 °C | IC50 [4]: < 100 nM | TEAD4 ΔTm [5]: 10 °C | AUC(0-t) [6]: 16100 ng·h/mL | Cmax [6]: 2470 ng/mL | half-life [6]: 2.6 h

SMILES: CNS(=O)(=O)CCc1cc(Oc2ccc(C(F)(F)F)cc2)cc2cn(C)nc12 [Example 45]
TEAD3 ΔTm [1]: 4 °C | TEAD1 ΔTm [2]: 9.3 °C | TEAD2 ΔTm [3]: 10.3 °C | IC50 [4]: 100 to 500 nM | TEAD4 ΔTm [5]: 10.6 °C | AUC(0-t) [6]: 11500 ng·h/mL | Cmax [6]: 3100 ng/mL | half-life [6]: 2.2 h

SMILES: CC(=O)NS(=O)(=O)CCc1cc(-c2ccc(C(F)(F)F)cc2)cc2cn(C)nc12 [Example 46]
TEAD3 ΔTm [1]: 7.2 °C | TEAD1 ΔTm [2]: 10.4 °C | TEAD2 ΔTm [3]: 10.9 °C | IC50 [4]: 1000 to 30000 nM | TEAD4 ΔTm [5]: 11.2 °C

SMILES: CNS(=O)(=O)CCCc1cc(-c2ccc(C(F)(F)F)cc2)cc2cn(C)nc12 [Example 47]
TEAD3 ΔTm [1]: −0.8 °C | TEAD1 ΔTm [2]: 4.7 °C | TEAD2 ΔTm [3]: 1.9 °C | IC50 [4]: 1000 to 30000 nM | TEAD4 ΔTm [5]: 5.7 °C

SMILES: CNS(=O)(=O)CCc1cc(N2CCC3(CCCC3)CC2)cc2cn(C)nc12 [Example 48]
TEAD3 ΔTm [1]: 1.9 °C | TEAD1 ΔTm [2]: 6.3 °C | TEAD2 ΔTm [3]: 9.4 °C | IC50 [4]: 1000 to 30000 nM | TEAD4 ΔTm [5]: 8.4 °C

SMILES: CNS(=O)(=O)CCc1cc(Oc2ccc(C(F)(F)F)cc2)cc2c1NCCC2 [Example 143]
TEAD3 ΔTm [1]: 10.3 °C | TEAD1 ΔTm [2]: 9.6 °C | TEAD2 ΔTm [3]: 13.2 °C | IC50 [4]: < 100 nM | TEAD4 ΔTm [5]: 8.8 °C

Now from value to compound, other results behind:

TEAD3 ΔTm [1]: 2.7 °C | TEAD1 ΔTm [2]: 8.1 °C | TEAD2 ΔTm [3]: 7 °C | IC50 [4]: < 100 nM | TEAD4 ΔTm [5]: 11.4 °C | AUC(0-t) [6]: 104000 ng·h/mL | Cmax [6]: 9750 ng/mL | half-life [6]: 5.4 h
SMILES: Cn1cc2cc(-c3ccc(C(F)(F)F)cc3)cc(C3C[C@H]3C(=O)O)c2n1 (mixture of isomers) [Example 2]

TEAD3 ΔTm [1]: 13.1 °C | TEAD1 ΔTm [2]: 11.6 °C | TEAD2 ΔTm [3]: 12.7 °C | IC50 [4]: 100 to 500 nM | TEAD4 ΔTm [5]: 11.8 °C | AUC(0-t) [6]: 676000 ng·h/mL | Cmax [6]: 40100 ng/mL | half-life [6]: 26.4 h
SMILES: Cn1cc2cc(Oc3ccc(C(F)(F)F)cc3)cc(C3C[C@H]3C(=O)O)c2n1 (mixture of isomers) [Example 16]

TEAD3 ΔTm [1]: 11.7 °C | TEAD1 ΔTm [2]: 9.2 °C | TEAD2 ΔTm [3]: 14.2 °C | IC50 [4]: 100 to 500 nM | TEAD4 ΔTm [5]: 10.1 °C | AUC(0-t) [6]: 497000 ng·h/mL | Cmax [6]: 33700 ng/mL | half-life [6]: 26 h
SMILES: O=C(O)[C@@H]1CC1c1cc(Oc2ccc(C(F)(F)F)cc2)cc2cccnc12 (mixture of isomers) [Example 17]

TEAD3 ΔTm [1]: 7.4 °C | TEAD1 ΔTm [2]: 8.8 °C | TEAD2 ΔTm [3]: 14 °C | IC50 [4]: 100 to 500 nM | TEAD4 ΔTm [5]: 9.1 °C | AUC(0-t) [6]: 617000 ng·h/mL | Cmax [6]: 41200 ng/mL | half-life [6]: 11.2 h
SMILES: Cn1ncc2c(C3C[C@H]3C(=O)O)cc(Oc3ccc(C(F)(F)F)cc3)cc21 (mixture of isomers) [Example 18]

TEAD3 ΔTm [1]: 10.9 °C | TEAD1 ΔTm [2]: 10.2 °C | TEAD2 ΔTm [3]: 14.2 °C | IC50 [4]: < 100 nM | TEAD4 ΔTm [5]: 11.3 °C | AUC(0-t) [6]: 31800 ng·h/mL | Cmax [6]: 3180 ng/mL | half-life [6]: 2.2 h
SMILES: CNC(=O)[C@H]1C[C@@H]1c1cc(Oc2ccc(C(F)(F)F)cc2)cc2cn(C)nc12 (single isomer, unassigned) [Example 34b]

TEAD3 ΔTm [1]: 10.9 °C | TEAD1 ΔTm [2]: 9.2 °C | TEAD2 ΔTm [3]: 12.9 °C | IC50 [4]: < 100 nM | TEAD4 ΔTm [5]: 11.3 °C | AUC(0-t) [6]: 17200 ng·h/mL | Cmax [6]: 1710 ng/mL | half-life [6]: 3.6 h
SMILES: Cn1cc2cc(Oc3ccc(C(F)(F)F)cc3)cc([C@H]3C[C@@H]3C(=O)N3CC(O)C3)c2n1 (single isomer, unassigned) [Example 58b]
Body weight change ([7]; 1 mg/kg): +8.2% | Body weight change ([7]; 3 mg/kg): +4.0% | Body weight change ([7]; 10 mg/kg): +1.6% | Body weight change ([7]; 30 mg/kg): +2.9% | TGI ([8]; 1 mg/kg): 95% | TGI ([8]; 3 mg/kg): 103% | TGI ([8]; 10 mg/kg): 128% | TGI ([8]; 30 mg/kg): 145%

TEAD3 ΔTm [1]: 10.0 °C | TEAD1 ΔTm [2]: 9.0 °C | TEAD2 ΔTm [3]: 12.2 °C | IC50 [4]: < 100 nM | TEAD4 ΔTm [5]: 11.3 °C | AUC(0-t) [6]: 10700 ng·h/mL | Cmax [6]: 1650 ng/mL | half-life [6]: 2.3 h
SMILES: Cn1cc2cc(Oc3ccc(C(F)(F)F)cc3)cc([C@@H]3C[C@H]3C(=O)N3CC[C@H](O)[C@@H](O)C3)c2n1 (single isomer, unassigned) [Example 75a]
Body weight change ([7]; 3 mg/kg): +6.7% | Body weight change ([7]; 10 mg/kg): +3.0% | Body weight change ([7]; 30 mg/kg): +4.0% | Body weight change ([7]; 60 mg/kg): +1.5% | TGI ([8]; 3 mg/kg): 90% | TGI ([8]; 10 mg/kg): 119% | TGI ([8]; 30 mg/kg): 150% | TGI ([8]; 60 mg/kg): 149%

TEAD3 ΔTm [1]: 10.2 °C | TEAD1 ΔTm [2]: 8.9 °C | TEAD2 ΔTm [3]: 11.4 °C | IC50 [4]: 100 to 500 nM | TEAD4 ΔTm [5]: 9.7 °C
SMILES: CNS(=O)(=O)CCc1cc(Oc2ccc(C(F)(F)F)cc2)cc2cccnc12 [Example 142]
